Source: paper PMC12226733, “Evolution of iGluR ligand specificity, polyamine regulation, and ion selectivity inferred from a placozoan epsilon receptor” (Communications Biology, 2025)
Substitutions are numbered along the chain they refer to. Several values for one entry are separate records, joined by “and”; a condition that tells them apart may be missing. Equal entries are not always repeated. Where two headings read alike, the source gives them in different places.

What was measured:
GluE1αA S642N = biological target: T1, GluE1αA S642N (Trichoplax adhaerens, UniProt B3SAW0, S167N)
T1 sequence (B3SAW0 1-341 S167N): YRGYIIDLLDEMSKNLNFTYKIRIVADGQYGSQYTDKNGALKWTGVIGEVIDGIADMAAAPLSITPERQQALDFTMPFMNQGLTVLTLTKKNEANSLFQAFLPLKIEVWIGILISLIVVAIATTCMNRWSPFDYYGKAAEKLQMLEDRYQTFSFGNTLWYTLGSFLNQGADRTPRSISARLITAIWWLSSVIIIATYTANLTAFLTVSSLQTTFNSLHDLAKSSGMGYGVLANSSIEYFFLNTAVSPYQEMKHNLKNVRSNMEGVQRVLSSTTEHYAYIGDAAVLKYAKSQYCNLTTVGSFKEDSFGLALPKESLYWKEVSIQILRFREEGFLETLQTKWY
Description: (§1) To further elucidate the nature of internal polyamine block in GluE1αA, we performed outside-out membrane patch clamp experiments in wildtype and mutant channels. […] Current-voltage (I-V) relationships were converted to conductance-voltage (G-V) plots and fit with a single permeant blocker model to estimate both the dissociation constant for Spm at 0 mV (Kd(0mV)) and the voltage dependency of block, as previously described[46],[47].
(§2) HEK-293T/17 cells (ATCC) were maintained in MEM supplemented with GlutaMAX and 10% fetal bovine serum (FBS) at 37 °C and 5% CO2. […] Transient transfections were carried out 48 h post-plating using the calcium phosphate precipitation method. After 6–8 hours, cells were washed twice with PBS and maintained in fresh medium. Cells transfected with mammalian GluA2 cDNA (plasmid vector described above) were returned to an incubator at 37 °C for 24–48 hours and cells transfected with Epsilon GluE1αA were incubated at 28 °C for 48–72 hours. In cells co-transfected with TARP-γ2, 30 μM NBQX was included in the medium to minimize AMPAR/auxiliary-induced cytotoxicity. All constructs were co-transfected with a plasmid encoding enhanced green fluorescent protein (eGFP) to identify transfected cells. Electrophysiology responses were recorded from outside-out patches excised from transfected cells. Recording pipettes were composed of borosilicate glass (3 to 6 megaohm, King Precision Glass) coated with dental wax to reduce electrical noise. All recordings were performed using Axopatch 200B amplifier (Molecular Devices, LLC). Current records were filtered at 5 or 10 kHz and sampled at 25–50 kHz. Series resistance (3 to 12 megaohms) was compensated by 95%. Recordings were performed at a range of holding potentials from −100 mV to 100 mV to study polyamine block. Data was acquired using pClamp9 software (Molecular Devices, LLC). All experiments were performed at room temperature. All chemicals were purchased from Sigma-Aldrich, unless otherwise indicated. External solution contained (in mM): 150 NaCl, 5 HEPES, 0.1 CaCl2, 0.1 MgCl, and […], pH 7.3–7.4. […] The osmotic pressure of all solutions was adjusted to 295 to 300 mOsm with sucrose. […] Stocks were thawed on the day of the experiment and used to prepared agonist-containing external solutions. Raw data for all electrophysiology experiments are provided in Supplementary Data 3. Current-voltage (I-V) relationships were fit using Origin 7 (OriginLab) using a ninth order polynomial function to estimate the reversal potential (Vrev).
(§3) Agonist-evoked membrane conductance (G) was calculated using the following equation: G=I/(V−Vrev)
(§4) Conductance-voltage (G-V) relationships were fit using Origin 7 (OriginLab) with the single permeant blocker model as done previously[46]: G=Gmax/1+[Spm]/Kd Where Gmax is the maximal conductance, [Spm] is the internal Spm concentration, and Kd is the dissociation constant.
(§5) Kd is defined as: Kd=koff+kperm/kon=sumofexitrates/bindingrate
(§6) And redefined as: Kd=g*exp(V/h)+L*exp(V/k) Where h and k are voltage dependencies of g and L, respectively, and at 0 mV: g=koff/konandL=kperm/kon

GluE1αA wt = GluE1αA wt (Trichoplax adhaerens, UniProt B3SAW0); conditions: for Normalized current (Inorm) GluE1αA wild type: single recordings and AVG
Description: as §1, §2, §3, §4, §5, §6

GluE1αA S642Q = biological target: T2, GluE1αA S642Q (Trichoplax adhaerens, UniProt B3SAW0, S167Q)
T2 sequence (B3SAW0 1-341 S167Q): T1 sequence (B3SAW0 1-341 S167N) with N167Q
Description: as §1, §2, §3, §4, §5, §6

GluE1αA D646A = assay type: cell-based, Trichoplax adhaerens; conditions: […]; for normalized conductance (G-V, Figure 5g), Avg: Na vs Na; for I-V current, Na vs Na, Avg of recordings: Figure 5b

Sequence of GluE1αA wt (B3SAW0 1-341): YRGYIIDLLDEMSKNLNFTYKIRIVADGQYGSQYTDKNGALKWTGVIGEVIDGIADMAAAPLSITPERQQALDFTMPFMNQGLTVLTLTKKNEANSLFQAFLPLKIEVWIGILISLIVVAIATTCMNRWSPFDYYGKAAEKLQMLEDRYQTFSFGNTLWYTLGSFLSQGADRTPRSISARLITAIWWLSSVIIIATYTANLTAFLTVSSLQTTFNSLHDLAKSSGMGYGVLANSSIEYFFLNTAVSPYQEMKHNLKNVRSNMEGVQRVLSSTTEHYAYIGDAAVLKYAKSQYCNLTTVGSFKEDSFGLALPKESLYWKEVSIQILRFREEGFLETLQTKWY

NCCCNCCCCNCCCN [spermine]
Normalized conductance (Gnorm) (GluE1αA S642N; 0 mV, single recordings c1-c7, AVG c8): 0.27 and 0.16 and 0.22
Normalized conductance (Gnorm) (GluE1αA S642N; -80 mV, single recordings c1-c7, AVG c8): 0.79
Normalized current (Inorm) (GluE1αA S642N; -100 mV, single recordings c1-c7, AVG c8): -1.00
h, voltage dependency of block onset (GluE1αA S642N; GluE1αA S642N): −26.4 ± 1.3 mV
k, voltage dependency of block relief (GluE1αA S642N; GluE1αA S642N): 34.9 ± 3.7 mV
Normalized current (Inorm) GluE1αA wild type (GluE1αA wt; 50 mV): 0.16 and 0.13 and 0.0847
Normalized current (Inorm) GluE1αA wild type (GluE1αA wt; -100 mV): -1.00
h, voltage dependency of block onset (GluE1αA wt; GluE1αA wt): −18.5 ± 0.6 mV
k, voltage dependency of block relief (GluE1αA wt; GluE1αA wt): 36.5 ± 4.7 mV
Normalized current (Inorm) (GluE1αA S642Q; -100 mV, single recordings c1-c10, AVG c11): -1.00
h, voltage dependency of block onset (GluE1αA S642Q; GluE1αA S642Q): −15.3 ± 0.7 mV
k, voltage dependency of block relief (GluE1αA S642Q; GluE1αA S642Q): 28.3 ± 2.1 mV

[Na+] [Na]
normalized conductance (G-V, Figure 5g), Avg (GluE1αA D646A; Vm 0.00): 0.81
normalized conductance (G-V, Figure 5g), Avg (GluE1αA D646A; Vm 20.00): 0.80
normalized conductance (G-V, Figure 5g), Avg (GluE1αA D646A; Vm 40.00): 0.77
normalized conductance (G-V, Figure 5g), Avg (GluE1αA D646A; Vm 60.00): 0.74
normalized conductance (G-V, Figure 5g), Avg (GluE1αA D646A; Vm 80.00): 0.78
normalized conductance (G-V, Figure 5g), Avg (GluE1αA D646A; Vm -20.00): 0.83
normalized conductance (G-V, Figure 5g), Avg (GluE1αA D646A; Vm -40.00): 0.84
normalized conductance (G-V, Figure 5g), Avg (GluE1αA D646A; Vm -60.00): 0.88
normalized conductance (G-V, Figure 5g), Avg (GluE1αA D646A; Vm -80.00): 1.00
I-V current, Na vs Na, Avg of recordings (GluE1αA D646A; Vm 0.00): -0.000461
I-V current, Na vs Na, Avg of recordings (GluE1αA D646A; Vm 20.00): 0.18
I-V current, Na vs Na, Avg of recordings (GluE1αA D646A; Vm 40.00): 0.36
I-V current, Na vs Na, Avg of recordings (GluE1αA D646A; Vm 60.00): 0.53
I-V current, Na vs Na, Avg of recordings (GluE1αA D646A; Vm 80.00): 0.69
I-V current, Na vs Na, Avg of recordings (GluE1αA D646A; Vm -20.00): -0.18
I-V current, Na vs Na, Avg of recordings (GluE1αA D646A; Vm -40.00): -0.37
I-V current, Na vs Na, Avg of recordings (GluE1αA D646A; Vm -60.00): -0.56
I-V current, Na vs Na, Avg of recordings (GluE1αA D646A; Vm -80.00): -0.76
